Measurements: ChEMBL document CHEMBL5674860, “Optimized Dual-Glo Assay to identify co-culture-induced drug vulnerabilities in 3D CRC models” (2024)
Values joined by “and” are separate entries in the source; they are usually repeats but may differ in a detail not shown here. Equal values may be shown once.

Key:
Type in all cases: functional, Homo sapiens
Parameters in all cases: dose or concentration left out as unconfirmed
[1] = system: Colon cancer organoid; assay: Optimized Dual-Glo assay to identify co-culture induced drug vulnerabilities using donated chemical probes and chemogenomics kinase set in O06 CRC organoid and F06 CAF mono and co-culture. […] Cell viability is reported both mono and co-culture models.
[2] = system: Colon cancer organoid; assay: Optimized Dual-Glo assay to identify co-culture induced drug vulnerabilities using donated chemical probes and chemogenomics kinase set in O14 CRC organoid and F14 CAF mono and co-culture. […] Cell viability is reported both mono and co-culture models.
[3] = system: Colon cancer organoid; assay: Optimized Dual-Glo assay to identify co-culture induced drug vulnerabilities using donated chemical probes and chemogenomics kinase set in O20 CRC organoid and F20 CAF mono and co-culture. […] Cell viability is reported both mono and co-culture models.
[4] = Culture type Co-Culture, Transduced with Lucferase2-P2A-EGFP lentivirus
[5] = Culture type Co-Culture, Transduced with Renilla-dsRed lentivirus
[6] = Culture type Mono-Culture, Transduced with Lucferase2-P2A-EGFP lentivirus
[7] = Culture type Mono-Culture, Transduced with Renilla-dsRed lentivirus

| SMILES | Cell Viability [1, 4] | Cell Viability [1, 5] | Cell Viability [1, 6] | Cell Viability [1, 7] | Cell Viability [2, 4] | Cell Viability [2, 5] | Cell Viability [2, 6] | Cell Viability [2, 7] | Cell Viability [3, 4] | Cell Viability [3, 5] | Cell Viability [3, 6] | Cell Viability [3, 7] |
| --- | --- | --- | --- | --- | --- | --- | --- | --- | --- | --- | --- | --- |
| CCOC(=O)c1c(/C(C#N)=C\N)c2ccc(Cl)c(Cl)c2n1C | 122.99% | 97.4073% | 58.62% | 82.6208% | 135.947% | 65.0868% | 144.997% | 76.1592% | 92.1376% | 87.4636% | 163.638% | 89.5418% |
| CNc1nc(-c2ccc3c(N)n[nH]c3c2)cc(N2C[C@@H](C(=O)NC3CCCCC3)CC[C@H]2C)n1 | 59.8926% | 53.4401% | 68.2825% | 54.6916% | 75.802% | 81.9858% | 103.482% | 52.6977% | 51.6899% | 121.574% | 29.0897% | 81.2947% |
| Cc1ccc(NC(=O)Nc2cc(C(F)(F)F)ccc2F)cc1Nc1ccc2c(c1)NC(=O)/C2=C\c1ccc[nH]1 | 112.777% | 121.077% | 144.763% | 85.6075% | 100.84% | 80.7866% | 148.906% | 94.1932% | 98.8429% | 67.3177% | 149.041% | 99.6693% |
| OCCn1cc(-c2ccc3c(c2)CCC3=NO)c(-c2ccncc2)n1 | 81.3359% | 109.303% | 157.495% | 121.815% | 155.629% | 130.506% | 186.115% | 118.266% | 201.802% | 70.8995% | 81.9137% | 103.135% |
| COc1cc2c(NC3CCN(C(C)C)CC3)nc(N3CCC(F)(F)CC3)nc2cc1OCCCN1CCCC1 | 88.0521% | 104.162% | 44.5913% | 47.5732% | 56.1565% | 72.4133% | 84.8802% | 67.5673% | 136.034% | 132.743% | 70.3827% | 53.0002% |
| Cc1ccc(C(=O)Nc2cccc(C(F)(F)F)c2)cc1Nc1nc(-c2cccnc2)nc2c1cnn2C | 60.2736% | 70.9034% | 100.972% | 83.1262% | 103.322% | 86.6207% | 91.8457% | 71.8424% | 141.672% | 123.917% | 68.1835% | 97.2478% |
| CCOc1cn(-c2ccc(F)cc2C)nc1C(=O)Nc1ccc(Oc2ccnc3cc(OC)c(OC)cc23)c(F)c1 | 87.51% and 89.4828% | 84.5689% and 64.7371% | 86.2071% and 96.2779% | 101.871% and 88.7626% | 102.771% and 90.3388% | 85.9243% and 77.553% | 131.662% and 123.945% | 95.388% and 87.085% | 230.831% and 191.214% | 78.4446% and 96.4847% | 106.501% and 84.8653% | 96.6073% and 93.6855% |
| C=CC(=O)Nc1cccc(C(=O)Nc2ccc(Nc3cc(-c4[nH]c(SC)nc4C)ccn3)cc2)c1 | 87.3077% | 89.5907% | 92.9694% | 99.3546% | 92.8618% | 104.149% | 127.049% | 88.1867% | 175.75% | 71.728% | 133.783% | 92.5554% |
| Cc1cc2c(cc1N1C(=O)c3cccc4c(CCCO)ccc(c34)C1=O)n(C)c(=O)n2C | 83.3962% | 164.269% | 66.8328% | 103.172% | 46.4165% | 127.225% | 64.4307% | 101.303% | 35.0091% | 231.762% | 20.745% | 97.4451% |
| Cn1cc(CCn2cnc(-c3cnn(C)c3)c2-c2ccc(C#N)cc2)cn1 | 101.212% | 117.261% | 137.811% | 99.9578% | 112.655% | 89.8106% | 89.6485% | 97.1773% | 162.016% | 107.326% | 101.421% | 89.845% |
| CCN(CC)S(=O)(=O)Nc1cccc(-c2ccc3c(NC(=O)C4CC4)n[nH]c3c2)c1 | 95.7035% | 91.2372% | 90.915% | 111.432% | 132.967% | 105.386% | 144.3% | 103.503% | 76.1767% | 136.148% | 110.502% | 120.639% |
| CC(C)C(=O)Nc1n[nH]c2cc(-c3cccc(NS(=O)(=O)C4CC4)c3)ccc12 | 155.711% | 134.333% | 107.561% | 124.696% | 100.589% | 100.218% | 136.967% | 94.5263% | 85.5363% | 102.387% | 113.542% | 124.62% |
| Clc1cc2c(NC3CCCC3)nnc(-c3ccncc3)c2cc1Cl | 131.765% | 133.642% | 39.455% | 87.2375% | 74.2058% | 99.3707% | 72.2513% | 106.405% | 149.301% | 128.6% | 80.485% | 77.3951% |
| CN1C(=O)c2sccc2N(C)c2nc(Nc3ccc(S(N)(=O)=O)cc3)ncc21 | 23.972% | 57.2364% | 18.6697% | 40.4928% | 32.5942% | 86.9407% | 37.7546% | 55.4366% | 36.1991% | 84.1947% | 15.0082% | 80.0783% |
